Measured values published in patent US12383569B2, “Immunomodulatory oligosaccharides for the treatment of pain” (Intrinsic Medicine, Inc., priority 2019, dated 2025).
≈ marks a conversion by molar mass, not a printed value. Entries after “also recorded” stand apart in the source; their conditions may differ.

Legend:
[1] = system: acetic acid-induced writhing; assay: Acetic acid-induced writhing test; type: in vivo; conditions: mice pretreated by oral or intravenous administration prior to acetic acid
[2] = system: IL-6 mRNA in RAW 264.7 cells; assay: IL-6 mRNA expression in LPS-stimulated macrophages (RT-PCR); type: cell-based, murine; conditions: LPS-activated macrophages, single oligosaccharide, 6 hours
Procedure: (§1) RAW246.7 cells were exposed to LPS either alone or in combination with either pooled human milk oligosaccharides (HMOs), or 3′-sialyllactose (3′SL) or 2′-fucosyllactose (2′FL). After 6 hours, IL-6 (A) and IL-1β (B) mRNA levels were measured by RT-PCR and are plotted as mean±standard deviation (n=8) relative the respective mRNA levels in cells that were exposed to LPS alone (**p<0.01; ***p<0.001). HMOs are a group of more than 150 different structurally distinct oligosaccharides and their composition follows a basic structural blueprint (C), containing five monosaccharide building blocks: glucose (dark gray circle), galactose (light gray circle), N-acetylglucosamine (dark gray square), fucose (gray triangle) and sialic acid (gray diamond). 3′SL contains lactose with sialic acid at the terminal end; 2′FL contains lactose with fucose at the terminal end.
(§2) Oligosaccharides Reduce Pro-Inflammatory Cytokine mRNA Expression in Stimulated Macrophages. HMOs were first isolated and purified from pooled human donor milk (pHMO) by using polymixin B affinity chromatography to remove any lipopolysaccharide (LPS) contamination. RAW 264.7 cells, a murine macrophage cell line, were then incubated with LPS (10 ng/mL) and pHMO (500 μg/mL) for 6 hours. RT-PCR was used to measure cytokine mRNA expression. […]

[3] = system: IL-1β mRNA in RAW 264.7 cells; assay: IL-1β mRNA expression in LPS-stimulated macrophages (RT-PCR); type: cell-based, murine; conditions: LPS-activated macrophages, single oligosaccharide, 6 hours
Procedure: as §1, §2

[4] = system: IL-6 and IL-1β mRNA expression; assay: Dose-range finding for reduction of IL-6 and IL-1β mRNA expression in stimulated macrophages; type: cell-based; conditions: Macrophage, dose-range finding studies
From the text: A multi-dimensional chromatography approach was used that separates pHMO first by charge and then by size. […] To exclude that the observed effect was due to impurities or contaminations from the isolation process, the results were confirmed with synthetized and commercially available 3′SL. […] Other oligosaccharides like 2′-fucosyllactose (2′FL), where the terminal monosaccharide is fucose instead of sialic acid (see FIG. 1C), had no effect, emphasizing that the anti-inflammatory effect of 3′ SL in macrophages is specific to the structure of 3′SL.

[5] = system: bone marrow derived macrophages; assay: Pro-inflammatory cytokine expression in primary mouse cells; type: cell-based
From the text: (§3) Accordingly, the results with 3′SL translate to primary cells as well as to human macrophages.

[6] = system: THP-1 monocytic cell line; assay: Pro-inflammatory cytokine expression in human monocytic cell line; type: cell-based; conditions: human THP-1 monocytic cell line
From the text: as §3

[7] = system: collagen antibody-induced arthritis (CAIA) mouse model; assay: Collagen antibody-induced arthritis (CAIA) model; type: in vivo, BALB/c mice; conditions: for histology score for cartilage damage / histology score for erosion / histology score for inflammation: hind paws, day 14, scored 0 to 4
Procedure: Next, it was asked whether or not the in vitro results translate to an in vivo model. 3′ SL efficacy in a collagen antibody-induced arthritis (CAIA) model was tested in mice. In the CAIA model, arthritis is induced by systemic administration of a cocktail of monoclonal antibodies that target various regions of collagen type II, which is one of the major constituents of articular cartilage matrix proteins, followed by the administration of endotoxin (LPS) on day 3. The high uptake rate in the CAIA model and the capacity to synchronize the development of arthritis from the time of antibody injection, makes this a relatively straightforward model that is used to address questions of pathogenic mechanisms and to screen candidate therapeutic agents. 8-week old female BALB/c mice were injected with 1.5 mg of Arthrogen-CIA monoclonal antibody cocktail (Chondrex, Inc.).
Three days later, the mice were injected with 25 μg of LPS. Beginning with the time of LPS administration and followed for the next 11 consecutive days, mice were orally gavaged thrice daily with either 3′ SL (20 mg in saline) or saline alone as control. With the tester blinded to the study groups, arthritis in each limb was determined once per day. […] By adding together, the scores of all four limbs, the maximum score per mouse is 28. In addition, a caliper was placed across the ankle joint at the widest point to measure ankle thickness in both hind limbs daily. 14 days after antibody cocktail administration, mice were euthanized, and hind paws collected and processed for histology. H&E—as well as Toluidine blue-stained sections were scored from 0 to 4 for inflammation, bone erosion and cartilage depletion based on a previously validated scoring system.

[8] = CAIA mice, oral gavage 20 mg thrice daily from LPS trigger, vs saline
[9] = oral gavage 20 mg thrice daily, listed as 3′ SL

CC(=O)N[C@H]1[C@H]([C@H](O)[C@H](O)CO)O[C@@](O[C@H]2[C@@H](O)[C@@H](CO)O[C@@H](O[C@H]3[C@H](O)[C@@H](O)C(O)O[C@@H]3CO)[C@@H]2O)(C(=O)O)C[C@@H]1O (stereo partly drawn) [Sialyllactose]
inhibition of writhing [1]: causes inhibition of writhing

CC(=O)N[C@H]1C([C@H](O)[C@H](O)CO)O[C@@](O[C@@H]2C(O)[C@H](O[C@@H]3C(CO)O[C@@H](O)C(O)[C@H]3O)OC(CO)[C@@H]2O)(C(=O)O)C[C@H]1O (stereo partly drawn) [3′SL, 3′-sialyllactose]
reduction of IL-6 mRNA expression [2]: most effective; also recorded: reduces
reduction of IL-1β mRNA expression [3]: most effective; also recorded: reduces
IC50 [4]: ~15 µg/mL (≈ 23.7 µM)
pro-inflammatory cytokine expression [5]: reduced pro-inflammatory cytokine expression
pro-inflammatory cytokine expression [6]: reduced pro-inflammatory cytokine expression
Baseline-corrected ankle thickness (paw swelling) [7, 8]: significantly reduced; also recorded: reduces
clinical index score 28 [7, 8]: significantly reduced; also recorded: reduces
histology score for cartilage damage ([7]; oral gavage 20 mg thrice daily): significantly lower
histology score for erosion ([7]; oral gavage 20 mg thrice daily): significantly lower
histology score for inflammation ([7]; oral gavage 20 mg thrice daily): significantly lower
histology score for cartilage damage [7, 9]: significantly reduced
histology score for erosion [7, 9]: significantly reduced
histology score for inflammation [7, 9]: significantly reduced
adverse effects ([7]; throughout the 14-day study period, CAIA mice, oral gavage 20 mg thrice daily): No adverse effects
